In brackets after ≈: the same amount, converted by molar mass.
What was measured:
[1] = system: bacteria, actinomycetes, and mycobacteria; settings: cited from earlier work
HIV protease = settings: cited from earlier work
[2] = system: myristoylation of proteins; settings: cited from earlier work
[3] = system: Mycobacterium tuberculosis; settings: cited from earlier work
HS 27 cells = experiment: Growth inhibition assay, HS 27 cells (crystal violet); type: cell-based; settings: Homo sapiens, HS27, 72 h; 3 days with compound
Protocol: (§1) Cells were seeded at 5×10^3 per well into 96-well plates and incubated for 3 days in RPMI, 10% FBS at 37° C. in a 5% CO2 :95% air atmosphere. Medium was removed and replaced with media plus compound. Compound doses were 10 serial dilutions from 200 μg/ml to 0.39 μg/ml. Cells were returned to the incubator for 3 additional days. The medium was removed and plates were washed twice with phosphate buffered saline. Wells were filled with 100 μl of 0.2% crystal violet in 2% ethanol for 10 min. Stain was removed from the wells and the plates were washed 3 times with distilled H2 O. After at least 4 h of drying wells were filled with 100 μl of 1% SDS and plates were shaken to disolve any dye crystals. Absorbance at 560 nm minus 650 nm in each well was measured using a Molecular Devices plate reader. IC50 values were calculated from 4-parameter curve-fits of the dose-response curves.

Candida albicans = experiment: Control organism susceptibility, Candida albicans; type: cell-based; settings: read-out: MIC (control organism)
SKBr 3 cells = experiment: Growth inhibition assay, SKBr 3 cells (crystal violet); type: cell-based; settings: Homo sapiens, SK-BR-3, 72 h; 3 days with compound
Protocol: as §1

[4] = molecular target: T1, FAS (fatty acid synthase), Cancer (Homo sapiens, UniProt P49327); experiment: FAS enzymatic assay, crude extract of breast cancer cell line ZR-75-1 (NADPH oxidation); type: biochemical; settings: ZR-75-1 crude cell extract, 30 min incubation at 10°-25° C.; read-out: IC50 for inhibition of FAS activity, Cancer
T1 construct: using a crude cell extract of a cancer cell line or Saccharomyces cerevisiae; endogenous in cells; host or cells: ZR-75-1 breast cancer cell line (crude dialyzed digitonin extract)
T1 sequence (P49327 whole entry): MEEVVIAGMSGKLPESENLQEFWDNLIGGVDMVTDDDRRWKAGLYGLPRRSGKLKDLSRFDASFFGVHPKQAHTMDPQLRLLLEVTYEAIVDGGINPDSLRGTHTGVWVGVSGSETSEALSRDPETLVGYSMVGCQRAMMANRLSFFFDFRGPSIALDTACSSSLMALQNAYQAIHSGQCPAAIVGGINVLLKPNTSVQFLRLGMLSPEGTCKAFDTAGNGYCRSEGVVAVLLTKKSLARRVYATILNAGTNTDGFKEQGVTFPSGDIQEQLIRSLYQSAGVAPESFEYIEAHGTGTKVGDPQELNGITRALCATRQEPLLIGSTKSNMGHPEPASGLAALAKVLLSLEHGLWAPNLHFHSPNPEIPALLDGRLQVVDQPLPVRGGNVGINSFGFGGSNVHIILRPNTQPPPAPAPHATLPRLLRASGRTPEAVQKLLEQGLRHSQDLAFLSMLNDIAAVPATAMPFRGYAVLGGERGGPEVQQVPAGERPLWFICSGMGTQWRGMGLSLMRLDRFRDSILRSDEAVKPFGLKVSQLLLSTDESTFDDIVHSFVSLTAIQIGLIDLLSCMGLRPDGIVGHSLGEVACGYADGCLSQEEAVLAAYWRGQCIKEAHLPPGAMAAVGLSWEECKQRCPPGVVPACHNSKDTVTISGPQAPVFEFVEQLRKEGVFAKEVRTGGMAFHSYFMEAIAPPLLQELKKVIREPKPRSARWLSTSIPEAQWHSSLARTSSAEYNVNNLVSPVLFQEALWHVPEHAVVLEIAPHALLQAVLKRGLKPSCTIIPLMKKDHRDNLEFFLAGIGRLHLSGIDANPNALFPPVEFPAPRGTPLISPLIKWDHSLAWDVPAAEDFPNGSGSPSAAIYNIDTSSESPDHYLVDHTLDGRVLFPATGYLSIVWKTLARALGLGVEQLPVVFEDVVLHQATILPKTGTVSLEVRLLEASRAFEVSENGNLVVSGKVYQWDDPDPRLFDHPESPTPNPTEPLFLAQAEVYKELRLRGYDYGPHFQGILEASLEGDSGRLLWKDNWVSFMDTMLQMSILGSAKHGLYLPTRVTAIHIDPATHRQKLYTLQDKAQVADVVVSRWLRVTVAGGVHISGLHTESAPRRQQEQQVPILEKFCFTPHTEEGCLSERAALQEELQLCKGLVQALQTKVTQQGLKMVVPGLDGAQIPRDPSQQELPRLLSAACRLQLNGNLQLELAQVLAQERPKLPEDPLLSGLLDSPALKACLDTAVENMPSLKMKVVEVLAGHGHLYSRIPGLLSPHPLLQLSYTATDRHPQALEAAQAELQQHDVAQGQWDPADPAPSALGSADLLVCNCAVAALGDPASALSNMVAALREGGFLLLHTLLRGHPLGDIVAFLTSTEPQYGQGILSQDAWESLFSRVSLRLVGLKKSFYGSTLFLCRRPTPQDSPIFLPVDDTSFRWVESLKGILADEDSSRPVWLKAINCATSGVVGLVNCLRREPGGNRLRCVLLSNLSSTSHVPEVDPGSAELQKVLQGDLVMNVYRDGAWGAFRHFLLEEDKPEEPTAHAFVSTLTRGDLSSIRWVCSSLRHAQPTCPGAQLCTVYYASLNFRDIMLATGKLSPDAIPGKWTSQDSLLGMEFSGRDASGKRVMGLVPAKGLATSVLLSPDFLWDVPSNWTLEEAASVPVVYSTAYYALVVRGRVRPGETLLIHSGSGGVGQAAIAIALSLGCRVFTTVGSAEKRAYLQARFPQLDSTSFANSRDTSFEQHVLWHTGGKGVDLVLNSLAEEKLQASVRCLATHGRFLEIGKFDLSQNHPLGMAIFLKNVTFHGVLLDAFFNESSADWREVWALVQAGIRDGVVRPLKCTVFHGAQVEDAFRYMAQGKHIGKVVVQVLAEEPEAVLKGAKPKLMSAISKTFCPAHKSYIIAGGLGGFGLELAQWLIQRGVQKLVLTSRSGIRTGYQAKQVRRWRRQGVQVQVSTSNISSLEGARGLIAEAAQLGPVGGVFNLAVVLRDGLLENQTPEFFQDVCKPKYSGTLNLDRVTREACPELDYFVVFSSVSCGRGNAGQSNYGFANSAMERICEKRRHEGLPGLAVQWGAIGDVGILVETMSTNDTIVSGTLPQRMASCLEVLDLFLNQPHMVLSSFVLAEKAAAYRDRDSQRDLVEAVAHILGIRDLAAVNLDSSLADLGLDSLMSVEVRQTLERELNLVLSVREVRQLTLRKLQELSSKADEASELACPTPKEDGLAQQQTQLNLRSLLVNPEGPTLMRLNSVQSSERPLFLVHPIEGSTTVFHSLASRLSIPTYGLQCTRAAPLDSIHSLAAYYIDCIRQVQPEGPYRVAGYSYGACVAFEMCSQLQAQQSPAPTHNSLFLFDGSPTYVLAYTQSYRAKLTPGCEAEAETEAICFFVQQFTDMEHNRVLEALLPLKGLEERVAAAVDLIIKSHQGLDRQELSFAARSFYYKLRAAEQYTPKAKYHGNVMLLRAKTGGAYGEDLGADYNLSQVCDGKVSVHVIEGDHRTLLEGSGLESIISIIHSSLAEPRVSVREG
Protocol: Preparation of crude cell extracts: The potential of compounds to inhibit FAS enzymatic activity was determined using a crude cell extract of a cancer cell line or Saccharomyces cerevisiae. The breast cancer cell line ZR-75-1 was grown to confluence in RPMI with 10$FBS. The cells were harvested by scraping, washed once with cold phosphate buffered saline pH 7.5 and stored at -80° C. Extracts were prepared by thawing the cells in the presence of 4 vol. of 25 mM potassium phosphate pH 7.5, 1 mM EDTA, 1 mM DTT, 0.4% digitonin, 0.7 μg/ml pepstatin, 2 μg/ml aprotinin and 0.5 μg/ml leupeptin. Cells were homogenized with a Dounce type homogenizer for 20 strokes. Extracts were cleared by two sequential centrifugations at 30,000 xg, for 30 min each. The extract was dialyzed against 125 mM potassium phosphate pH 6.6, 1 mM EDTA, 1 mM DTT using a 100,000 molecular weight cut off membrane. The extract stored at 4° C. with 3 mM sodium azide. Yeast extracts were prepared from freeze-dried yeast. Yeast were reconstituted in 5 vol/g 100 mM potassium phosphate pH 6.5. Cells were harvested by centrifugation at 3,000 xg for 10 min. Cells were washed with 5 vol 100 mM potassium phosphate pH 6.5 and suspended in 2 vol. 125 mM potassium phosphate pH 6.6, 1 mM EDTA, 1 mM DTT, 0.7 μg/ml pepstatin, 2 μg/ml aprotinin and 0.5 μg/ml leupeptin. Sterile 0.5 mm glass beads were added (1/2 vol) and the mixture vortex vigorously for four 30 s intervals with 30 s rests on ice between mixes. Extracts were cleared by centrifugation and dialyzed as described above.
Testing of compound activity: Compounds were tested for their ability to inhibit FAS enzymatic activity by incubating the compounds with the crude cell extracts and measuring residual FAS activity. The compounds were mixed with a crude cell extract to the desired concentration and the mixture incubated at 10°-25° C. for 30 min. Residual FAS activity was measured as described below. The concentration of compound giving 50% maximal activity defined the IC50 which was calculated from a 4-parameter equation of the dose-response curves.
(§2) Enzymatic assay conditions: The FAS enzyme activity was measured by monitoring the oxidation of NADPH spectrophotometrically (Dils, R. and E. M. Carey, 1975, Fatty acid synthase from rabbit mammary gland. Methods in Enzymol. 35:74-83). A 50 μl portion of an extract or extract-compound mixture was mixed with 50 μl 250 mM potassium phosphate pH 6.6, 40 μM acetyl-CoA, 200 μM malonyl-CoA, 1 mM NADPH and 2 mM DTT. The initial rate of NADPH oxidation at 25° C. was measured by monitoring the decrease in absorbance at 340 nm.

[5] = molecular target: T2, FAS (fatty acid synthase), Yeast (Saccharomyces cerevisiae, UniProt P19097); experiment: FAS enzymatic assay, crude yeast extract (NADPH oxidation); type: biochemical; settings: 30 min incubation at 10°-25° C., read-out: IC50 for inhibition of FAS activity, Yeast
T2 construct: Yeast extracts were prepared from freeze-dried yeast; endogenous in cells; host or cells: freeze-dried Saccharomyces cerevisiae (crude glass-bead extract, dialyzed)
Protocol: Preparation of crude cell extracts: The potential of compounds to inhibit FAS enzymatic activity was determined using a crude cell extract of a cancer cell line or Saccharomyces cerevisiae. The breast cancer cell line ZR-75-1 was grown to confluence in RPMI with 10$FBS. The cells were harvested by scraping, washed once with cold phosphate buffered saline pH 7.5 and stored at -80° C. Extracts were prepared by thawing the cells in the presence of 4 vol. of 25 mM potassium phosphate pH 7.5, 1 mM EDTA, 1 mM DTT, 0.4% digitonin, 0.7 μg/ml pepstatin, 2 μg/ml aprotinin and 0.5 μg/ml leupeptin. Cells were homogenized with a Dounce type homogenizer for 20 strokes. Extracts were cleared by two sequential centrifugations at 30,000 xg, for 30 min each. […]
Testing of compound activity: Compounds were tested for their ability to inhibit FAS enzymatic activity by incubating the compounds with the crude cell extracts and measuring residual FAS activity. […] Residual FAS activity was measured as described below. […]
as §2, with “A 50 μl portion of an extract or extract-compound mixture was mixed with 50 μl 250 mM potassium phosphate pH 6.6, 40 μM acetyl-CoA, 200 μM malonyl-CoA, 1 mM NADPH and 2 mM DTT.” left out

fatty acid synthase = settings: cited from earlier work
[6] = system: mammary, colon, and prostatic carcinoma lines; settings: U.S. Ser. No. 08/096,908 and its CIP; cited from earlier work
M. tuberculosis = experiment: Radiometric (Bactec) susceptibility test, M. tuberculosis; type: cell-based; settings: Mycobacterium tuberculosis
[7] = system: fatty acid synthase expression in MCF-7 cells; settings: Northern analysis; cited from earlier work
[8] = system: panel of cell lines with varying levels of FAS enzyme activity; experiment: Anti-proliferative effect on a panel of cell lines with varying levels of FAS; type: cell-based
acyl CoA-synthetase = settings: for long-chain fatty acids; cited from earlier work
[9] = molecular target: rat liver acyl-CoA synthetase; settings: read-out: concentration causing 50% inhibition of acyl-CoA synthetase; cited from earlier work
Vero cells = settings: cited from earlier work
Raji cells = settings: cited from earlier work
Hela cells = settings: cited from earlier work

Compound	IC50 (HS 27 cells)	IC50 (SKBr 3 cells)	IC50 [4]	other results
C/C=C/C/C=C/CCC(=O)[C@H]1O[C@H]1C(N)=O [CTC002, (2S) (3R) 2,3-epoxy-4-oxo-7,10 dodecadienoyl amide]	20 µM	20 µM	8.6 µM	in vitro activity against some bacteria, actinomycetes, and mycobacteria [1]: some in vitro activity; inhibition of viral HIV protease, concentration (HIV protease): 5 mg/mL; inhibition of myristoylation of proteins [2]: does not specifically inhibit; in vitro activity against Mycobacterium tuberculosis [3]: no activity; MIC (Candida albicans): < 1.5 µg/mL; IC50 [5]: 0.4 µM; type of inhibition of fatty acid synthase (fatty acid synthase): specific and non-competitive inhibitor; growth inhibition of carcinoma lines [6]: potently inhibit the growth
Cc1cccc(/C=C/CCC2C=CC(=O)O2)c1 (centres unmarked) [CTC003]	> 50 µM	> 50 µM	> 100 µM	–
Cc1cccc(/C=C/CCC(O)C2OC2C(N)=O)c1 (centres unmarked) [CTC004]	> 50 µM	> 50 µM	> 100 µM	–
Cc1cccc(/C=C/CCCN2C(=O)C=CC2=O)c1 [CTC005]	> 50 µM	> 50 µM	> 78 µM	–
Cc1cccc(/C=C/CCC(=O)C2OC2C(N)=O)c1 (centres unmarked) [CTC006]	32 µM	21 µM	10.4 µM	MIC (M. tuberculosis): 25 µg/mL (≈ 96.4 µM); IC50 [5]: 82 µM
C/C=C/C/C=C/CCN1C(=O)C=CC1=O [CTC013]	63 µM	63 µM	> 97 µM	–
C/C=C/C/C=C/CCCN1C(=O)C=CC1=O [CTC014]	> 50 µM	> 50 µM	> 92 µM	–
N[C@@H](Cc1cc(I)c(Oc2ccc(O)c(I)c2)c(I)c1)C(=O)O [T3, reference compound]	–	–	–	effect on fatty acid synthase expression [7]: no effect
CCCCCCCCCCCCCCOc1ccc(C(=O)O)o1 [TOFA]	–	–	–	anti-proliferative effect [8]: anti-proliferative effect
CCCCCC/C=C/C=C/C=N/NN=O [Triacsin A]	–	–	–	mechanism of inhibition of acyl CoA-synthetase (acyl CoA-synthetase): competitive
CCC/C=C/C/C=C/C=C/C=NN=NO [Triacsin C, 1-hydroxy-3-(E, E, E-2',4',7'-undecatrienylidine) triazene]	–	–	–	IC50 [9]: 8.7 µM; growth inhibition of Vero cells (Vero cells): inhibit growth; growth inhibition, concentration (Raji cells): 1.0 µM; growth inhibition of Hela cells (Hela cells): inhibit growth
CC(=O)[C@H]1CC[C@H]2[C@@H]3CCC4=CC(=O)CC[C@]4(C)[C@H]3CC[C@]12C [progesterone, reference compound]	–	–	–	increase in fatty acid synthase expression [7]: 5-10 fold
insulin growth factor-1: insulin growth factor-1	–	–	–	effect on fatty acid synthase expression [7]: only slightly stimulatory
insulin: insulin	–	–	–	effect on fatty acid synthase expression [7]: only slightly stimulatory

Source: patent publication US5539132A, “Cerulenin compounds for fatty acid synthesis inhibition” (Johns Hopkins University, priority 1994, dated 1996)
